{"source": "patent US20070043047A1", "about": "“Fungicidal mixtures for controlling rice pathogens” (BASF AKTIENGESELLSCHAFT, priority 2003, published 2007)", "tested_on": "Corticium sasakii (syn. Rhizoctonia solani)", "assay": "Activity against sheath blight on rice caused by Corticium sasakii (protective spray, pot test)", "type": "in vivo", "settings": "for Efficacy in % of the untreated control: individual active compound, rice, evaluated after 11 days, untreated control 90% infection", "protocol": "The active compounds, separately or jointly, were prepared as a stock solution with 0.25% by weight of active compound in acetone or DMSO. 1% by weight of the emulsifier Uniperol® EL (wetting agent having emulsifying and dispersing action based on ethoxylated alkylphenols) was added to this solution, and the solution was diluted with water to the desired concentration.\nUse example—Activity against sheath blight on rice caused by Corticium sasakii (syn. Rhizoctonia solani) Pots of rice plants of the cultivar “Tai-Nong 67” were sprayed to runoff point with an aqueous suspension having the concentration of active compound stated below. The next day, oat grains infected with Corticium sasakii were placed into the pots (in each case 5 grains per pot). The plants were then placed in a chamber at 26° C. and maximum atmospheric humidity. After 11 days, the sheath blight on the untreated but infected control plants had developed to such an extent that the infection could be determined visually in %.\nEvaluation is carried out by determining the infected plants in percent. These percentages were converted into efficacies.\nThe efficacy (E) is calculated as follows using Abbot's formula: E=(1−α/β)·100 α corresponds to the fungicidal infection of the treated plants in % and β corresponds to the fungicidal infection of the untreated (control) plants in % An efficacy of 0 means that the infection level of the treated plants corresponds to that of the untreated control plants; an efficacy of 100 means that the treated plants are not infected.\nThe expected efficacies of the mixtures of active compounds are determined using Colby's formula [R. S. Colby, Weeds 15, 20-22 (1967)] and compared with the observed efficacies.\nColby's formula: E=x+y−x·y/100\nE expected efficacy, expressed in % of the untreated control, when using the mixture of the active compounds A and B at the concentrations a and b x efficacy, expressed in % of the untreated control, when using active compound A at the concentration a y efficacy, expressed in % of the untreated control, when using active compound B at the concentration b", "data": [{"smiles": "CC1CCN(c2c(-c3c(F)cccc3Cl)c(Cl)nc3ncnn23)CC1", "note": "(single isomer, unassigned) [A]", "values": [{"measurement": "Efficacy in % of the untreated control", "setting": "1 ppm in the spray liquor", "value": 0, "unit": "%"}, {"measurement": "Efficacy in % of the untreated control", "setting": "4 ppm in the spray liquor", "value": 0, "unit": "%"}]}, {"smiles": "CC1CCN(c2c(-c3c(F)cccc3Cl)c(Cl)nc3ncnn23)CC1", "note": "(single isomer, unassigned) [B]", "values": [{"measurement": "Efficacy in % of the untreated control", "setting": "1 ppm in the spray liquor", "value": 0, "unit": "%"}, {"measurement": "Efficacy in % of the untreated control", "setting": "4 ppm in the spray liquor", "value": 72, "unit": "%"}, {"measurement": "Effectiveness against sheath blight, comparison in words", "setting": "summary of the test results", "value": "activity comparable to that of compound I"}]}, {"smiles": "CC1CCN(c2c(-c3c(F)cc(F)cc3F)c(Cl)nc3ncnn23)CC1", "note": "[I, 5-chloro-7-(4-methylpiperidin-1-yl)-6-(2,4,6-trifluorophenyl)-[1,2,4]tri-azolo[1,5-a]pyrimidine]", "values": [{"measurement": "Efficacy in % of the untreated control", "setting": "1 ppm in the spray liquor", "value": 33, "unit": "%"}, {"measurement": "Efficacy in % of the untreated control", "setting": "4 ppm in the spray liquor", "value": 67, "unit": "%"}]}, {"smiles": "CC(Cc1ccc(C(C)(C)C)cc1)CN1C[C@@H](C)O[C@@H](C)C1", "note": "(stereo partly drawn) [II, 4-[3-(4-tert-butylphenyl)-2-methylpropyl]-2,6-dimethylmorpholine]", "values": [{"measurement": "Efficacy in % of the untreated control", "setting": "1 ppm in the spray liquor", "value": 0, "unit": "%"}, {"measurement": "Efficacy in % of the untreated control", "setting": "4 ppm in the spray liquor", "value": 0, "unit": "%"}]}]}
